# Experimental data published in patent US20250092065A1, “2-(INDAZOL-5-YL)-6-(PIPERIDIN-4-YL)-1,7-NAPHTHYRIDINE DERIVATIVES AND RELATED COMPOUNDS AS MODULATORS FOR SPLICING NUCLEIC ACIDS AND FOR THE TREATMENT OF PROLIFERATIVE DISEASES” (REMIX THERAPEUTICS INC., priority 2022, published 2025).
# Like-named read-outs stand apart in the source and are kept apart here.
# Experiments:
# MYB mRNA = assay: RT-qPCR splicing assay, MYB mRNA canonical (CJ) and alternative (AJ) junction; format: cell-based, human; settings: Homo sapiens
# How it was run: (§1)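 Canonical and alternative-exon junction isoforms were quantified by RT-qPCR in cell lysates, with ΔCt against a housekeeper (GAPDH/GUSB/PPIA), then ΔΔCt vs DMSO, converted to 2^(−ΔΔCt) and percent response. K562 or A673 cells were exposed for 24 h to 11 concentrations (3-fold, top final 10 uM).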
# SMN2 mRNA = assay: RT-qPCR splicing assay, SMN2 mRNA; format: cell-based, human; settings: Homo sapiens, canonical junction qPCR panel, Table 4; read-out: SMN2 IC50 (decrease in CJ mRNA levels)
# How it was run: as §1
# Target C = assay: RT-qPCR canonical junction panel assay, Target C mRNA; format: cell-based; settings: Table 4, read-out: Target C IC50 (decrease in CJ mRNA levels)
# Method: Compounds described herein were used to modulate RNA transcript abundance in cells. The expression of a target mRNA was measured by detecting the formation of an exon-exon junction in the canonical transcript (CJ). A compound mediated exon-inclusion event was detected by observing an increase in formation of a new junction with an alternative exon (AJ). Real-time qPCR assays were used to detect these splicing switches and interrogate the potency of various compounds towards different target genes. A high-throughput real time quantitative PCR (RT-qPCR) assay was developed to measure these two isoforms of the mRNA (CJ and AJ) for exemplary genes, such as HTT, SMN2, and MYB, together with a control housekeeping gene, GAPDH or GUSB or PPIA, used for normalization. Briefly, the A673 or K562 cell line was treated with various compounds described herein (e.g., compounds of Formula (I)). After treatment, the levels of the HTT, MYB, or SMN2 mRNA targets were determined from each sample of cell lysate by cDNA synthesis followed by qPCR.
# The data analysis was performed by first determining the ΔCt vs the housekeeper gene. This ΔCt was then normalized against the DMSO control (ΔΔCt) and converted to RQ (relative quantification) using the 2^(−ΔΔCt) equation. The RQ were then converted to a percentage response by arbitrarily setting an assay window of 3.5 and 4.0 ΔCt for HTT-CJ and MYB-CJ respectively and an assay window of 9 and 3 ΔCt for HTT-AJ and MYB-AJ in 96 well format (50,000 K562 cells/well and 15,000 A673 cells per well) and an assay window of 3 and 4 ΔCt for HTT-CJ and MYB-CJ respectively and an assay window of 5 and 3 ΔCt for HTT-AJ and MYB-AJ respectively in 384 well format (8,000 K562 cells/well example). […] The percentage response was then fitted to the 4 parametric logistic equation to evaluate the concentration dependence of compound treatment. The increase in AJ mRNA is reported as AC50 (compound concentration having 50% response in AJ increase) while the decrease in CJ mRNA levels is reported as IC50 (compound concentration having […] in CJ decrease).
# Additional studies were carried out for a larger panel of genes using the protocol provided above. The junction between flanking upstream and downstream exons was used to design canonical junction Qpcr assays. At least one of the forward primer, reverse primer or the CY5-labeled 5′ nuclease probe (with 3′ quencher such as ZEN/Iowa Black FQ) was designed to overlap with the exon junction to capture the CJ Mrna transcript. BLAST was used to confirm the specificity of the probeset and parameters suCH As melting temperature, GC content, amplicon size, and primer dimer formation are considered during their design. Data for the decrease in CJ Mrna levels for four exemplary genes (HTT, SMN2, MYB, and Target C) analyzed in this panel are reported as IC50 (compound concentration having […] in CJ decrease).
# HTT mRNA = assay: RT-qPCR splicing assay, HTT mRNA canonical (CJ) and alternative (AJ) junction; format: cell-based, human; settings: Homo sapiens
# How it was run: as §1
# K562 cells = assay: Cell Titer Glo 2.0 cell viability (toxicity) assay, K562; settings: 500 cells/well, 72 hours
# [1] = MYB alternative junction mRNA, RT-qPCR, read-out: MYB AJ (increase in AJ mRNA, AC50)
# [2] = MYB canonical junction mRNA, RT-qPCR, read-out: MYB CJ (decrease in CJ mRNA levels, IC50)
# [3] = canonical junction qPCR panel, Table 4, read-out: MYB IC50 (decrease in CJ mRNA levels)
# [4] = HTT alternative junction mRNA, RT-qPCR, read-out: HTT AJ (increase in AJ mRNA, AC50)
# [5] = HTT canonical junction mRNA, RT-qPCR, read-out: HTT CJ (decrease in CJ mRNA levels, IC50)
# [6] = canonical junction qPCR panel, Table 4, read-out: HTT IC50 (decrease in CJ mRNA levels)
# [7] = RT-qPCR, MYB alternative junction mRNA increase, read-out: MYB AJ (increase in alternative junction mRNA, AC50)
# [8] = RT-qPCR, MYB canonical junction mRNA decrease, read-out: MYB CJ (decrease in canonical junction mRNA, IC50)
# [9] = RT-qPCR, HTT alternative junction mRNA increase, read-out: HTT AJ (increase in alternative junction mRNA, AC50)
# [10] = RT-qPCR, HTT canonical junction mRNA decrease, read-out: HTT CJ (decrease in canonical junction mRNA, IC50)
Compound,IC50 (MYB mRNA; [2]),IC50 (MYB mRNA; [3]),IC50 (SMN2 mRNA),IC50 (Target C),IC50 (HTT mRNA; [5]),IC50 (HTT mRNA; [6]),IC50 (MYB mRNA; [8]),IC50 (HTT mRNA; [10]),AC50 (MYB mRNA; [1]),AC50 (HTT mRNA; [4]),"Effect of Exemplary Compounds on Cell Viability, K562 (K562 cells)",AC50 (MYB mRNA; [7]),AC50 (HTT mRNA; [9])
"CCc1nc2cc(O)c(-c3ccc4nc(N5CC[C@@H](NC(C)(C)C)C5)ccc4n3)cc2o1 (single isomer, unassigned) [Compound 808]",,1000 to 10000 nM,100 to 1000 nM,1000 to 10000 nM,,1000 to 10000 nM,1000 to 10000 nM,1000 to 10000 nM,,,C (C represents 1000-9999 nM),1000 to 10000 nM,1000 to 10000 nM
"CCc1nc2cc(O)c(-c3ccc4nc(N5CC[C@H](NC(C)(C)C)C5)ccc4n3)cc2o1 (single isomer, unassigned) [Compound 809]",,1000 to 10000 nM,1000 to 10000 nM,1000 to 10000 nM,,1000 to 10000 nM,1000 to 10000 nM,1000 to 10000 nM,,,C (C represents 1000-9999 nM),1000 to 10000 nM,1000 to 10000 nM
CN(c1ccc2nc(-c3cc4cn(C)nc4cc3O)ccc2n1)C1CC(C)(C)N(C)C(C)(C)C1 [Compound 130],> 10000 nM,> 10000 nM,100 to 1000 nM,> 10000 nM,> 10000 nM,> 10000 nM,,,> 10000 nM,> 10000 nM,,,
"COc1cc2nc(C3CCNCC3)ccc2nc1-c1cc2c(C)nc(C)cn2n1 [Compound 343, 2-{4,6-dimethylpyrazolo[1,5-a]pyrazin-2-yl}-3-methoxy-6-(piperidin-4-yl)-1,5-naphthyridine]",1000 to 10000 nM,1000 to 10000 nM,< 100 nM,> 10000 nM,1000 to 10000 nM,1000 to 10000 nM,,,1000 to 10000 nM,1000 to 10000 nM,,,
"C[C@@H]1CN(c2ccc3nc(-c4cc5cn(C)nc5cc4O)nc(C4CCC4)c3c2)C[C@H](C)N1 [Compound 791, 5-{4-cyclobutyl-6-[(3R,5S)-3,5-dimethylpiperazin-1-yl]quinazolin-2-yl}-2-methylindazol-6-ol]",,1000 to 10000 nM,,> 10000 nM,,1000 to 10000 nM,1000 to 10000 nM,1000 to 10000 nM,,,B (B represents 100-1000 nM),1000 to 10000 nM,> 10000 nM
"Cc1cn2nc(-c3ncc4cc(N5CCNC6(CC6)C5)ccc4n3)cc(C)c2n1 [Compound 795, 2-(2,8-dimethylimidazo[1,2-b]pyridazin-6-yl)-6-(4,7-diazaspiro[2.5]octan-7-yl)quinazoline]",,1000 to 10000 nM,,> 10000 nM,,> 10000 nM,1000 to 10000 nM,> 10000 nM,,,C (C represents 1000-9999 nM),1000 to 10000 nM,> 10000 nM
"Cc1cn2nc(-c3ccc4cc(N5CCNC6(CC6)C5)cc(F)c4n3)cc(C)c2n1 [Compound 804, 6-{4,7-diazaspiro[2.5]octan-7-yl}-2-{2,8-dimethylimidazo[1,2-b]pyridazin-6-yl}-8-fluoroquinoline]",,100 to 1000 nM,,100 to 1000 nM,,100 to 1000 nM,100 to 1000 nM,100 to 1000 nM,,,B (B represents 100-1000 nM),100 to 1000 nM,100 to 1000 nM

# Further lines, with some results ahead:
IC50 (MYB mRNA; [2]),IC50 (MYB mRNA; [3]),IC50 (SMN2 mRNA),IC50 (Target C),IC50 (HTT mRNA; [5]),IC50 (HTT mRNA; [6]),IC50 (MYB mRNA; [8]),IC50 (HTT mRNA; [10]),Compound,AC50 (MYB mRNA; [1]),AC50 (HTT mRNA; [4]),"Effect of Exemplary Compounds on Cell Viability, K562 (K562 cells)",AC50 (MYB mRNA; [7]),AC50 (HTT mRNA; [9])
< 100 nM,< 100 nM,< 100 nM,< 100 nM,< 100 nM,< 100 nM,,,"Cc1nc2c(F)c(O)c(-c3ccc4nc(N5CC[C@@H](NC6(CF)CC6)C5)ccc4n3)cc2o1 (single isomer, unassigned) [Compound 372]",< 100 nM,< 100 nM,,,
,< 100 nM,< 100 nM,100 to 1000 nM,,100 to 1000 nM,< 100 nM,100 to 1000 nM,"C[C@H]1CN(c2cc(F)c3nc(-c4cc(F)c5nn(C)cc5c4)ccc3c2)CCN1 (single isomer, unassigned) [Compound 789]",,,B (B represents 100-1000 nM),< 100 nM,100 to 1000 nM
,100 to 1000 nM,< 100 nM,1000 to 10000 nM,,1000 to 10000 nM,100 to 1000 nM,1000 to 10000 nM,"Cc1c(O)c(-c2ncc3cc(N4C[C@H](C)NC5(CC5)C4)ccc3n2)cc2cn(C)nc12 (single isomer, unassigned) [Compound 810]",,,B (B represents 100-1000 nM),100 to 1000 nM,1000 to 10000 nM
< 100 nM,< 100 nM,< 100 nM,< 100 nM,< 100 nM,< 100 nM,,,Cc1nc2c(F)c(O)c(-c3ccc4nc(N5CCC(NCC6CC6)C5)ccc4n3)cc2o1 (stereo not drawn) [Cmpd 294],< 100 nM,< 100 nM,,,
< 100 nM,< 100 nM,< 100 nM,< 100 nM,< 100 nM,< 100 nM,,,Cc1nc2c(C)c(O)c(-c3ccc4nc(N5CC[C@@H](NC(C)C)C5)ncc4n3)cc2o1 [Cmpd 415],< 100 nM,< 100 nM,,,
,100 to 1000 nM,,1000 to 10000 nM,,100 to 1000 nM,100 to 1000 nM,100 to 1000 nM,"Cc1c(O)c(-c2ncc3cc(N4CCNC5(CC5)C4)ccc3n2)cc2cn(C)nc12 [Compound 792, 5-(6-{4,7-diazaspiro[2.5]octan-7-yl}quinazolin-2-yl)-2,7-dimethylindazol-6-ol]",,,B (B represents 100-1000 nM),100 to 1000 nM,1000 to 10000 nM
,100 to 1000 nM,,> 10000 nM,,1000 to 10000 nM,100 to 1000 nM,1000 to 10000 nM,"Cc1nc(-c2cc3cn(C)nc3c(C)c2O)nc2ccc(N3CCNC4(CC4)C3)cc12 [Compound 793, 5-(6-{4,7-diazaspiro[2.5]octan-7-yl}-4-methylquinazolin-2-yl)-2,7-dimethylindazol-6-ol]",,,B (B represents 100-1000 nM),100 to 1000 nM,1000 to 10000 nM
,100 to 1000 nM,,1000 to 10000 nM,,1000 to 10000 nM,100 to 1000 nM,1000 to 10000 nM,"Cn1cc2cc(-c3ncc4cc(N5CCC(N6CCC6)CC5)ccc4n3)c(O)cc2n1 [Compound 801, 5-{6-[4-(azetidin-1-yl)piperidin-1-yl]quinazolin-2-yl}-2-methylindazol-6-ol]",,,B (B represents 100-1000 nM),1000 to 10000 nM,1000 to 10000 nM
,100 to 1000 nM,,100 to 1000 nM,,100 to 1000 nM,100 to 1000 nM,100 to 1000 nM,"C[C@H]1CN(c2ccc3nc(-c4cc(F)c5nn(C)cc5c4)ncc3c2)C[C@H](C)N1 [Compound 802, 6-[(3S,5S)-3,5-dimethylpiperazin-1-yl]-2-(7-fluoro-2-methylindazol-5-yl)quinazoline]",,,B (B represents 100-1000 nM),100 to 1000 nM,100 to 1000 nM
